In patent US10155765B2, “Carboxamide inhibitors of IRAK4 activity” (MERCK SHARP & DOHME CORP., priority 2015, dated 2018) one finds IC50 data, which are given here for 26 compounds.

Where a name gives a salt, the structure may show the parent alone.

For the experiment, the target named is IRAK4 (Homo sapiens (Human), UniProt Q9NWZ3). The experiment in a line: IRAK4 Kinase Assay (IMAP fluorescence polarization). It counts as biochemical. The conditions noted are these: GST tagged IRAK4, 100 μM ATP, 30 minutes at 25° C., IMAP FP. The source says: Other assays are known in the literature and could be readily performed by those of skill in the art.
Chain of IRAK4 (Q9NWZ3 whole entry): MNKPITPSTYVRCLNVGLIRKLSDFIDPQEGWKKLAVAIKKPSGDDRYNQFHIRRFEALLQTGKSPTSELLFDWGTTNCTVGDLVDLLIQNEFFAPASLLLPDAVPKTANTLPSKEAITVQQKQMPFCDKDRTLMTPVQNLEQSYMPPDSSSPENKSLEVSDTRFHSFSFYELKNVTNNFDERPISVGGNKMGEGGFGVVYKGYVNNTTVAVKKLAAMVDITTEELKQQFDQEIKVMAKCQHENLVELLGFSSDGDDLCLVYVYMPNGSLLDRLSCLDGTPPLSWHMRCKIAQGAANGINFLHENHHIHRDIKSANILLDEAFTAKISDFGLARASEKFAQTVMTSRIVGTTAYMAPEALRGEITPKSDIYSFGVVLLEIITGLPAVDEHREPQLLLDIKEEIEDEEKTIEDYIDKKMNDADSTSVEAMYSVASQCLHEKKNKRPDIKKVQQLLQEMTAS
The reaction is initiated by the addition of ATP.
Compound `Cn1cc(NC(=O)c2cnn3ccc(NC4CCCCCC4N)nc23)c(C(N)=O)n1` (centres unmarked) [Example 13, 5-[(2-aminocycloheptyl)amino]-N-(3-carbamoyl-1-methyl-1H-pyrazol-4-yl)pyrazolo[1,5-a]pyrimidine-3-carboxamide] yielded a half-inhibitory concentration (IC50) of 2 nM.
`NC(=O)c1nn(-c2ccccn2)cc1NC(=O)c1cnn2ccc(N3CCNCC3)nc12` [Example 37, N-(3-Carbamoyl-1-pyridin-2-yl-1H-pyrazol-4-yl)-5-piperazin-1-ylpyrazolo[1,5-a]pyrimidine-3-carboxamide] showed an IC50 of 1000 nM.
The value for `CNC(=O)c1nn(C)cc1NC(=O)c1ccc2cnc(N[C@@H]3CCCC[C@@H]3N)nn12` [Example 64, 2-{[(1R,2S)-2-aminocyclohexyl]amino}-N-[1-methyl-3-(methylcarbamoyl)-1H-pyrazol-4-yl]pyrrolo[2,1-f][1,2,4]triazine-7-carboxamide trifluoroacetate] was 13 nM; that for `Cn1cc(NC(=O)c2cnn3ccc(NCC4CNC(=O)C4)nc23)c(C(N)=O)n1` (centres unmarked) [Example 29, N-(3-carbamoyl-1-methyl-1H-pyrazol-4-yl)-5-{[(5-oxopyrrolidin-3-yl)methyl]amino}pyrazolo[1,5-a]pyrimidine-3-carboxamide] was 270 nM.
Next, `NC(=O)c1ccccc1NC(=O)c1cnn2cccnc12` [Example 52, N-(2-carbamoylphenyl)pyrazolo[1,5-a]pyrimidine-3-carboxamide hydrochloride]: 7600 nM; `Cn1cc(NC(=O)c2cnn3ccc(N[C@H]4COCC[C@H]4N)nc23)c(C(N)=O)n1` [Example 1, 5-(((3R,4R)-4-Aminotetrahydro-2H-pyran-3-yl)amino)-N-(3-carbamoyl-1-methyl-1H-pyrazol-4-yl)pyrazolo[1,5-a]pyrimidine-3-carboxamide]: 31 nM; `CNS(=O)(=O)c1ccc(-n2cc(NC(=O)c3cnn4ccc(N5CCNCC5)nc34)c(C(N)=O)n2)cc1` [Example 33, N-{3-Carbamoyl-1-[4-(methylsulfamoyl)phenyl]-1H-pyrazol-4-yl}-5-piperazin-1-ylpyrazolo[1,5-a]pyrimidine-3-carboxamide]: 4 nM.
With `CNC(=O)c1nn(C)cc1NC(=O)c1cnn2ccc(N[C@H]3CCCC[C@H]3N)nc12` (relative stereo) [Example 16, 5-{[cis-2-aminocyclohexyl]amino}-N-[1-methyl-3-(methylcarbamoyl)-1H-pyrazol-4-yl]pyrazolo[1,5-a]pyrimidine-3-carboxamide trifluoroacetate], half-maximal inhibition (IC50) required 18 nM.
The value for `COCCn1cc(NC(=O)c2ccc3cnc(N[C@@H]4CCCC[C@@H]4N)nn23)c(C(N)=O)n1` [Example 66, 2-{[(1R,2S)-2-aminocyclohexyl]amino}-N-[3-carbamoyl-1-(2-methoxyethyl)-1H-pyrazol-4-yl]pyrrolo[2,1-f][1,2,4]triazine-7-carboxamide trifluoroacetate] was 6 nM.
The value for `NC(=O)c1sccc1NC(=O)c1cnn2cccnc12` [Example 50, N-(2-carbamoylthiophen-3-yl)pyrazolo[1,5-a]pyrimidine-3-carboxamide hydrochloride] was 3500 nM.
In turn, `NC(=O)c1cnccc1NC(=O)c1cnn2cccnc12` [Example 49, N-(3-carbamoylpyridin-4-yl)pyrazolo[1,5-a]pyrimidine-3-carboxamide hydrochloride] yielded an IC50 of 710 nM.
Next, `CN(C)C(=O)c1nn(C)cc1NC(=O)c1cnn2ccc(N[C@H]3CCCC[C@H]3N)nc12` (relative stereo) [Example 17, 5-{[cis-2-aminocyclohexyl]amino}-N-[3-(dimethylcarbamoyl)-1-methyl-1H-pyrazol-4-yl]pyrazolo[1,5-a]pyrimidine-3-carboxamide trifluoroacetate]: 150 nM; `Cn1cc(NC(=O)c2csc3nccnc23)c(C(N)=O)n1` [Example 56, N-(3-Carbamoyl-1-methyl-1H-pyrazol-4-yl)thieno[2,3-b]pyrazine-7-carboxamide]: 69 nM.
In turn, `CN1CCC(n2cc(NC(=O)c3cnn4ccc(N[C@H]5CCCC[C@H]5N)nc34)c(C(N)=O)n2)CC1` (relative stereo) [Example 19, 5-{[cis-2-Aminocyclohexyl]amino}-N-[3-carbamoyl-1-(1-methylpiperidin-4-yl)-1H-pyrazol-4-yl]pyrazolo[1,5-a]pyrimidine-3-carboxamide] came in with a concentration for half-maximal inhibition (IC50) of 2 nM.
The value for `Cn1cc(NC(=O)c2cnn3ccc(N[C@H]4CS(=O)(=O)CC[C@H]4N)nc23)c(C(N)=O)n1` (relative stereo) [Example 5, 5-{[cis-4-amino-1,1-dioxidotetrahydro-2H-thiopyran-3-yl]amino}-N-(3-carbamoyl-1-methyl-1H-pyrazol-4-yl)pyrazolo[1,5-a]pyrimidine-3-carboxamide trifluoroacetate] was 15 nM; that for `NC(=O)c1nn(CCO)cc1NC(=O)c1ccc2cnc(N[C@@H]3CCCC[C@@H]3N)nn12` [Example 63, 2-{[(1R,2S)-2-aminocyclohexyl]amino}-N-[3-carbamoyl-1-(2-hydroxyethyl)-1H-pyrazol-4-yl]pyrrolo[2,1-f][1,2,4]triazine-7-carboxamide trifluoroacetate] was 3 nM; that for `Cn1cc(NC(=O)c2ccc3cnc(NCCN)nn23)c(C(N)=O)n1` [Example 58, 2-[(2-Aminoethyl)amino]-N-(3-carbamoyl-1-methyl-1H-pyrazol-4-yl)pyrrolo[2,1-f][1,2,4]triazine-7-carboxamide] was 0.9 nM.
Next, `NC(=O)c1nn(-c2cccnc2)cc1NC(=O)c1cnn2ccc(N[C@H]3CCCC[C@H]3N)nc12` (relative stereo) [Example 6, 5-{[cis-2-aminocyclohexyl]amino}-N-(3-carbamoyl-1-pyridin-3-yl-1H-pyrazol-4-yl)pyrazolo[1,5-a]pyrimidine-3-carboxamide]: 0.8 nM; `NCCNc1ncc2ccc(C(=O)Nc3cn(CCO)nc3C(N)=O)n2n1` [Example 59, 2-[(2-aminoethyl)amino]-N-[3-carbamoyl-1-(2-hydroxyethyl)-1H-pyrazol-4-yl]pyrrolo[2,1-f][1,2,4]triazine-7-carboxamide trifluoroacetate]: 2 nM.
Next, `Cn1cc(NC(=O)c2cnn3ccc(N4CCOCC4)nc23)c(C(N)=O)n1` [Example 30, N-(3-carbamoyl-1-methyl-1H-pyrazol-4-yl)-5-morpholin-4-ylpyrazolo[1,5-a]pyrimidine-3-carboxamide hydrochloride]: 240 nM; `NC(=O)c1nn(-c2cccnc2)cc1NC(=O)c1cnn2cccnc12` [Example 44, N-(3-carbamoyl-1-pyridin-3-yl-1H-pyrazol-4-yl)pyrazolo[1,5-a]pyrimidine-3-carboxamide]: 59 nM.
`CC(C)(C)c1cc(NC(=O)c2cnn3cccnc23)c(C(N)=O)s1` [Example 51, N-(5-tert-butyl-2-carbamoylthiophen-3-yl)pyrazolo[1,5-a]pyrimidine-3-carboxamide hydrochloride]: the IC50 came out at 8500 nM. This IC50 is about 140-fold higher than that of the compound before.
Next, `CC(C)(C)OC(=O)N1CCC(n2cc(NC(=O)c3cnn4cccnc34)c(C(N)=O)n2)CC1` [Example 46, tert-butyl 4-{3-carbamoyl-4-[(pyrazolo[1,5-a]pyrimidin-3-ylcarbonyl)amino]-1H-pyrazol-1-yl}piperidine-1-carboxylate]: 670 nM; `NC(=O)c1cc(S(N)(=O)=O)c(Cl)cc1NC(=O)c1cnn2cccnc12` [Example 54, N-(2-carbamoyl-5-chloro-4-sulfamoylphenyl)pyrazolo[1,5-a]pyrimidine-3-carboxamide trifluoroacetate]: 310 nM.
Next, `Cn1cc(NC(=O)c2cnn3ccc(N4CCNCC4)nc23)c(C(N)=O)n1` [Example 31, N-(3-carbamoyl-1-methyl-1H-pyrazol-4-yl)-5-piperazin-1-ylpyrazolo[1,5-a]pyrimidine-3-carboxamide hydrochloride]: 37 nM.
Next, `CCn1cc(NC(=O)c2ccc3cnc(N[C@@H]4CCCC[C@@H]4N)nn23)c(C(N)=O)n1` [Example 62, 2-{[(1R,2S)-2-aminocyclohexyl]amino}-N-(3-carbamoyl-1-ethyl-1H-pyrazol-4-yl)pyrrolo[2,1-f][1,2,41triazine-7-carboxamide trifluoroacetate]: 1 nM.
